Data on eight compounds can be found in ChEMBL document CHEMBL1201862, “PubChem BioAssay data set” (2004).

The AC50 is the concentration giving half of the maximal activity seen. A word on the EC50: it is the concentration needed to bring the measured effect to its halfway point.

Activity calls are given as the source filed them.

One assay addresses Cysteine protease ATG4B (Homo sapiens, UniProt Q9Y4P1). In kind it is functional.
The target in a further assay is Phospholipase A2 (Homo sapiens, UniProt P04054). In kind it is functional.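 Further: confirmatory dose-response counterscreen on phospholipase A2, testing hits that came from an ultra-high-throughput screen for ATG4B inhibitors.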
Assay [1] can be described thus: Luminescence Cell-Based Dose Retest to Confirm Inhibitors of Cancer Stem Cells. [Related pubchem assays (depositor defined):AID2717, AID2721]. In kind it is functional. Particulars: Homo sapiens.
Assay [2] has as its target T1, Bifunctional protein GlmU (Mycobacterium tuberculosis, UniProt P9WMN3).
T1 sequence (P9WMN3 whole entry): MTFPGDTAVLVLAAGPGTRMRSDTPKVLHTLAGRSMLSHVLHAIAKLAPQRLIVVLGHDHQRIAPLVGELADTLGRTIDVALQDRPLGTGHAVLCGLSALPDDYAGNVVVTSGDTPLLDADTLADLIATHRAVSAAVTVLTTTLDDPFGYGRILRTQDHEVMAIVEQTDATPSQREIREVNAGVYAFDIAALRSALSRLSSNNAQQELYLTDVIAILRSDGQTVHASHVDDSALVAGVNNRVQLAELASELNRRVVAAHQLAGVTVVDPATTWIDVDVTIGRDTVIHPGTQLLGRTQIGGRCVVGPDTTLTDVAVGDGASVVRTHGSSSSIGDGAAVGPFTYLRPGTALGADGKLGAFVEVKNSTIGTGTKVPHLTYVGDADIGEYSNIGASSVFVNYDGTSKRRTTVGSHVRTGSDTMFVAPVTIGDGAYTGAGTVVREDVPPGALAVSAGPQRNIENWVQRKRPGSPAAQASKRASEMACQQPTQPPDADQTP
Kind of assay: Inhibitors of Mycobacterial Glucosamine-1-phosphate acetyl transferase (GlmU). Secondary screen. On the set-up: species or system Mycobacterium tuberculosis H37Rv.

In assay [3] the target is Induced myeloid leukemia cell differentiation protein Mcl-1 (Homo sapiens, UniProt Q07820). Type of assay: functional.
A short description of assay [4]: viability loss of HMLE_sh_eGFP cells – cell-based, luminescence, counter-screen for HMLE_sh_ECad selective toxicity project, dose response (AID 463074).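 Further: HMLE human mammary epithelial cells expressing control shRNA against eGFP.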 Type of assay: functional, Homo sapiens.
Assay [5] deals with T2, Polyadenylate-binding protein 1 (Homo sapiens, UniProt P11940). As to the kind of experiment: MLLE domain peptide-binding blockers, IC50 – biochemical, fluorescence polarization, FITC-PAM2 peptide, dose response (AID 602259). In kind it is functional. The following applies: read-out: IC50_Mean.
In assay [6] the target is T2, Polyadenylate-binding protein 1. Kind of assay: MLLE binding blockers, Cy5 peptide tracer – biochemical, fluorescence polarization, Cy5-PAM2 peptide, secondary, miRNA deadenylation inhibitor project, dose response (AID 602260). Particulars: read-out: IC50_Mean. Type of assay: functional. In general terms: Polarisation of emitted light reports the rotation of a fluorescent probe.

The nature of assay [7]: Trypanosoma cruzi growth suppression in host cells – NIH3T3 host cells, beta-gal luminescence, confirmation (AID 2044).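 Further: intracellular parasites grown in NIH/3T3 mouse fibroblasts as host cells; luminescent beta-galactosidase reporter signal from transgenic T. cruzi replicating inside host cells; inhibitors lower the luminescence signal.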 In kind it is functional, cell-based.
The nature of assay [8]: NIH3T3 cell viability loss – ATP luminescence, mouse fibroblasts, counter-screen, dose response (AID 2010).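 Further: cells exposed to compound for about 90 hours before reading.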 In kind it is functional, cell-based. A general note: Counterscreens check selectivity or assay interference.
Assay [9] has as its target T3, Beta-adrenergic receptor kinase 1 (Homo sapiens, UniProt P25098).
T3 sequence (P25098 whole entry): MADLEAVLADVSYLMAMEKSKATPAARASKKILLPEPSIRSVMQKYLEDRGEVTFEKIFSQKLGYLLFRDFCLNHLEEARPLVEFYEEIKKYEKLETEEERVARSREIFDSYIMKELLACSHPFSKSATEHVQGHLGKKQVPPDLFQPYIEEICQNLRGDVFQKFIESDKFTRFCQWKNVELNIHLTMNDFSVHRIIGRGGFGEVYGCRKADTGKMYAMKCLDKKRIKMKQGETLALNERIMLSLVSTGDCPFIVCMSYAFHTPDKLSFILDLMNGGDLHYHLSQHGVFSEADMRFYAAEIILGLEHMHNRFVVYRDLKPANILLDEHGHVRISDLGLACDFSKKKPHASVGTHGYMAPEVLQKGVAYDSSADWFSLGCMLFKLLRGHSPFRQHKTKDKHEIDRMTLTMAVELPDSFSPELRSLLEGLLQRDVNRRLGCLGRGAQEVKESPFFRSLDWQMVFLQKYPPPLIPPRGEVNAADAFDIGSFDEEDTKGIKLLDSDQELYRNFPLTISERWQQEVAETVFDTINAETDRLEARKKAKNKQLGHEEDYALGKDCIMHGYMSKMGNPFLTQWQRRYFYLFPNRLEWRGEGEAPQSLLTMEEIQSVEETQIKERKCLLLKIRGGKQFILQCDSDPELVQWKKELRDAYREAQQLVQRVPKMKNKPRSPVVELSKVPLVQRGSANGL
Kind of assay: aptamer displacement from bead-bound GRK2 – biochemical, cherry pick 1, bead flow cytometry, dose response (AID 504500). In general terms: In flow cytometry, cells or beads pass a laser one at a time.

The target in assay [10] is Apoptotic protease-activating factor 1 (Homo sapiens, UniProt O14727). Kind of assay: activation of Apaf-1 mediated apoptosis – fluorescent, uHTS hits, dose response (AID 588554). Type of assay: functional.
Assay [11] concerns the target T4, Estrogen receptor beta (Homo sapiens, UniProt Q92731).
For another assay, the target named is T5, Estrogen receptor (Homo sapiens, UniProt P03372).
T5 sequence (P03372 whole entry): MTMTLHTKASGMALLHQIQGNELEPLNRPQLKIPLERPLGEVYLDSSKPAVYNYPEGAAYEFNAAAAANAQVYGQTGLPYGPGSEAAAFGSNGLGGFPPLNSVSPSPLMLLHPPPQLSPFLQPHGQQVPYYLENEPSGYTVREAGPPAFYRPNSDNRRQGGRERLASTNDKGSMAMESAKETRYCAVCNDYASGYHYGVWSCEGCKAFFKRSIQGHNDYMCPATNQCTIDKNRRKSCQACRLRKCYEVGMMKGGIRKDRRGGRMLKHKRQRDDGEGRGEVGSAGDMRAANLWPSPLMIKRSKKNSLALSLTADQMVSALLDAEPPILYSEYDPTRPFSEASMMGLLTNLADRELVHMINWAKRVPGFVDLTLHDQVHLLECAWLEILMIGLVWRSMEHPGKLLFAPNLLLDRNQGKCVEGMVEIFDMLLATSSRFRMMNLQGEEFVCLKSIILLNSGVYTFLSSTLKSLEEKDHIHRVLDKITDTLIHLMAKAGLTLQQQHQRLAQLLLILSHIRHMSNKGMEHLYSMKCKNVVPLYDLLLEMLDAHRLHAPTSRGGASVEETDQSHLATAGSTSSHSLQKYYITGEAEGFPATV

A short description of assay [12]: Luminescence Cell-Based Dose Confirmation HTS to Identify Inhibitors of Platelet Dense Granule Release. [Related pubchem assays: 1663 (Primary HTS), 1678 (Summary of Project)]. In kind it is functional.
The test system of assay [13] is Streptococcus sp. 'group A'. As to the kind of experiment: Streptococcus pyogenes SK(-)GAS viability under kanamycin – luminescence, BacTiterGlo, confirmation, counter-screen for streptokinase expression inhibitor project, dose response (AID 1900). Type of assay: functional, organism-based.
For the next assay, the system named is Streptococcus. Kind of assay: GAS UMAA2166 growth inhibition – luminescence, BacTiterGlo, counter-screen for streptokinase expression inhibitor project, dose response (AID 1915).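 Further: potency for reduction of bacterial viability or growth.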 Type of assay: functional, organism-based.
In assay [14] the target is Sphingosine 1-phosphate receptor 1 (Homo sapiens, UniProt P21453). As to the kind of experiment: Fluorescence-based counterscreen assay for S1P4 agonists: Cell-based dose response high throughput screening assay to identify agonists of the Sphingosine 1-Phosphate Receptor 1 (S1P1). [Related pubchem assays (depositor defined):AID1509, AID1523, AID1801, AID463107, AID463118, AID463119, AID463122, AID463123, AID463129, AID463225, AID504400, AID504460]. Type of assay: functional.

Assay [15] deals with Luciferin 4-monooxygenase (Photinus pyralis, UniProt P08659). Kind of assay: inhibition of purified Photinus pyralis luciferase – biochemical, luminescence, dose response (AID 1891).
Assay [16] has as its target T4, Estrogen receptor beta. As to the kind of experiment: blockers of SRC-3 recruitment to ERβ – biochemical, ELISA, streptavidin-HRP readout, orthogonal assay, confirmation (AID 1060).
For assay [17], the target named is Sphingosine 1-phosphate receptor 4 (Homo sapiens, UniProt O95977). Kind of assay: Fluorescence dose response cell-based high throughput screening assay for agonists of the Sphingosine 1-Phosphate Receptor 4 (S1P4). [Related pubchem assays: 1509 (Primary screen.), 1523 (Confirmation screen in triplicates.)]. Type of assay: functional.
The target in assay [18] is Sphingosine 1-phosphate receptor 2 (Homo sapiens, UniProt O95136). As to the kind of experiment: Dose Response Cell Based Assay for Agonists of the S1P2 Receptor. [Related pubchem assays: 729, 736, 843 ]. Type of assay: functional.
For a further assay, the target named is T6, Streptokinase A (Streptococcus pyogenes serotype M1, UniProt P10520).
T6 sequence (P10520 whole entry): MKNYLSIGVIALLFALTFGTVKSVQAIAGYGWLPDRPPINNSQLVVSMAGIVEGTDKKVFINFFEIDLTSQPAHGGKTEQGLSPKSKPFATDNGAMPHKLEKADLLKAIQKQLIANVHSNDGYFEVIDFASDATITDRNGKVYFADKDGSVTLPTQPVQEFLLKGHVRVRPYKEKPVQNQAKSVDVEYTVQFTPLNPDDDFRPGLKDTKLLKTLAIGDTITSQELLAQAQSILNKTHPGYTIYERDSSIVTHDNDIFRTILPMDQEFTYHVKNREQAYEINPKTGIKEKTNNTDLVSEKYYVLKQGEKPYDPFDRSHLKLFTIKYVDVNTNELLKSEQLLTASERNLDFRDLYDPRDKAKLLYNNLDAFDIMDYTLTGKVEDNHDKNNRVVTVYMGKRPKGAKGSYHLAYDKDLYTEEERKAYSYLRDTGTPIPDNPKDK
Kind of assay: viability-normalized secreted streptokinase activity reduction – plasminogen activation absorbance, OD405, dose response (AID 1914).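 Further: secreted streptokinase activity via plasminogen activation per viability signal from cell pellet.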 Type of assay: functional, Streptococcus pyogenes M1 GAS.

The target in the next assay is CAAX prenyl protease 1 (Saccharomyces cerevisiae S288c, UniProt P47154). Kind of assay: yeast CAAX protease Ste24 inhibition – biochemical, S. cerevisiae, plate reader, cherry-pick, dose response (AID 488815).
Assay [19] has as its target Dual specificity protein kinase CLK1 (Homo sapiens, UniProt P49759). Kind of assay: inhibition of human CLK1 activity – biochemical, cherry-picked samples, selectivity assay for Dyrk1A inhibitor project, dose response (AID 588811).

T2 sequence (P11940 whole entry, the tested form may be a part): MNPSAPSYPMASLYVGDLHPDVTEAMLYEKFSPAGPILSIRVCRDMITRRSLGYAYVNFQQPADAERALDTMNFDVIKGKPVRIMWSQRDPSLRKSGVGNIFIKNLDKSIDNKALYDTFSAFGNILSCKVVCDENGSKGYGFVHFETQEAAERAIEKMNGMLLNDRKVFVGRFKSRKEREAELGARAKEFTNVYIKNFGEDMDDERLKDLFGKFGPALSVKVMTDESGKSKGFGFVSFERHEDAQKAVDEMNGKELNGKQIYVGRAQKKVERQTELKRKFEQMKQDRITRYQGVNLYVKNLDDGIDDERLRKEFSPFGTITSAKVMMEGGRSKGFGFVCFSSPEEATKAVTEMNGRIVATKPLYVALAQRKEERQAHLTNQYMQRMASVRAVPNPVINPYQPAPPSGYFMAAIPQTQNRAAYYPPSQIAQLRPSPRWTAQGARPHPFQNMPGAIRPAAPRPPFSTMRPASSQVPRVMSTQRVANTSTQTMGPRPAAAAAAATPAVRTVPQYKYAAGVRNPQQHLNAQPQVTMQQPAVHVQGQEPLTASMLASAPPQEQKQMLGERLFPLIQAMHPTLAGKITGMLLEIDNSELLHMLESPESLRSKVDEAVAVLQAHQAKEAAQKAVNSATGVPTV
Chain of Phospholipase A2 (P04054 whole entry): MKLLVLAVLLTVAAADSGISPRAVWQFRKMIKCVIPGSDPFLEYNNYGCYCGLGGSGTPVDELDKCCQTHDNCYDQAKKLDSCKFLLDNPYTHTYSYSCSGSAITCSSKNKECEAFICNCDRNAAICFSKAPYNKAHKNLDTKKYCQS
Chain of Induced myeloid leukemia cell differentiation protein Mcl-1 (Q07820 whole entry): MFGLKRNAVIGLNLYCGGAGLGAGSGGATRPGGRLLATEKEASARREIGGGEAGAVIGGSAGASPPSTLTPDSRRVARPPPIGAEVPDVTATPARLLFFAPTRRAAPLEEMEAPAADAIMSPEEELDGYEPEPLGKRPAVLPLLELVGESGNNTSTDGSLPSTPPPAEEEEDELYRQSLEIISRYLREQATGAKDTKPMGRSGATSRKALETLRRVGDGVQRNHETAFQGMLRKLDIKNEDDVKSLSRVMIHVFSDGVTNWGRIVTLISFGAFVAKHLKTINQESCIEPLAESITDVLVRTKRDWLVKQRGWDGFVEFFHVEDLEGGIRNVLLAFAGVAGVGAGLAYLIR
T4 sequence (Q92731 whole entry): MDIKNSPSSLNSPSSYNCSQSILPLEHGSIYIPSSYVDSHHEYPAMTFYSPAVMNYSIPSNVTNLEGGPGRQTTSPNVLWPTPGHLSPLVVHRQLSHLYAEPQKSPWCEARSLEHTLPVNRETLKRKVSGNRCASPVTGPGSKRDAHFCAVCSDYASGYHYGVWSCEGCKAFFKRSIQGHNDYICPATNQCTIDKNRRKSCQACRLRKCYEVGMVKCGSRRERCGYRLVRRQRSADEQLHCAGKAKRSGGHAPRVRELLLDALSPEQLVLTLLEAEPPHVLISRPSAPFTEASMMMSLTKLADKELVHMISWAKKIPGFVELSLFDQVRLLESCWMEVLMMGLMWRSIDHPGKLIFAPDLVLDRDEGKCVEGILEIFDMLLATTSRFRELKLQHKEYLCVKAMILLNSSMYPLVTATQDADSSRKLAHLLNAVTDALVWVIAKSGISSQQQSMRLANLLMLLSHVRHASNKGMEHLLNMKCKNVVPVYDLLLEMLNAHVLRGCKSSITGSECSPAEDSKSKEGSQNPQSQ
Chain of Cysteine protease ATG4B (Q9Y4P1 whole entry): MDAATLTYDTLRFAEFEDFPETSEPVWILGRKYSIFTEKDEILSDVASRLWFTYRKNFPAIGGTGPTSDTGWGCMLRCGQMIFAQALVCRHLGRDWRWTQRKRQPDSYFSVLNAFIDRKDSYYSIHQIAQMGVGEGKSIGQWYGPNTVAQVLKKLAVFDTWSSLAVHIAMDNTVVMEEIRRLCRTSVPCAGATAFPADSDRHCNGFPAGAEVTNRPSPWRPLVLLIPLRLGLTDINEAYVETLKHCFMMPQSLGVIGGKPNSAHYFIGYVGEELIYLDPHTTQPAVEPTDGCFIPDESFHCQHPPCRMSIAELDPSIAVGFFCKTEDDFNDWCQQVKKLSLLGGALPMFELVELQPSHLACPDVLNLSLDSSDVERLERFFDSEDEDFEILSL
Chain of Apoptotic protease-activating factor 1 (O14727 whole entry): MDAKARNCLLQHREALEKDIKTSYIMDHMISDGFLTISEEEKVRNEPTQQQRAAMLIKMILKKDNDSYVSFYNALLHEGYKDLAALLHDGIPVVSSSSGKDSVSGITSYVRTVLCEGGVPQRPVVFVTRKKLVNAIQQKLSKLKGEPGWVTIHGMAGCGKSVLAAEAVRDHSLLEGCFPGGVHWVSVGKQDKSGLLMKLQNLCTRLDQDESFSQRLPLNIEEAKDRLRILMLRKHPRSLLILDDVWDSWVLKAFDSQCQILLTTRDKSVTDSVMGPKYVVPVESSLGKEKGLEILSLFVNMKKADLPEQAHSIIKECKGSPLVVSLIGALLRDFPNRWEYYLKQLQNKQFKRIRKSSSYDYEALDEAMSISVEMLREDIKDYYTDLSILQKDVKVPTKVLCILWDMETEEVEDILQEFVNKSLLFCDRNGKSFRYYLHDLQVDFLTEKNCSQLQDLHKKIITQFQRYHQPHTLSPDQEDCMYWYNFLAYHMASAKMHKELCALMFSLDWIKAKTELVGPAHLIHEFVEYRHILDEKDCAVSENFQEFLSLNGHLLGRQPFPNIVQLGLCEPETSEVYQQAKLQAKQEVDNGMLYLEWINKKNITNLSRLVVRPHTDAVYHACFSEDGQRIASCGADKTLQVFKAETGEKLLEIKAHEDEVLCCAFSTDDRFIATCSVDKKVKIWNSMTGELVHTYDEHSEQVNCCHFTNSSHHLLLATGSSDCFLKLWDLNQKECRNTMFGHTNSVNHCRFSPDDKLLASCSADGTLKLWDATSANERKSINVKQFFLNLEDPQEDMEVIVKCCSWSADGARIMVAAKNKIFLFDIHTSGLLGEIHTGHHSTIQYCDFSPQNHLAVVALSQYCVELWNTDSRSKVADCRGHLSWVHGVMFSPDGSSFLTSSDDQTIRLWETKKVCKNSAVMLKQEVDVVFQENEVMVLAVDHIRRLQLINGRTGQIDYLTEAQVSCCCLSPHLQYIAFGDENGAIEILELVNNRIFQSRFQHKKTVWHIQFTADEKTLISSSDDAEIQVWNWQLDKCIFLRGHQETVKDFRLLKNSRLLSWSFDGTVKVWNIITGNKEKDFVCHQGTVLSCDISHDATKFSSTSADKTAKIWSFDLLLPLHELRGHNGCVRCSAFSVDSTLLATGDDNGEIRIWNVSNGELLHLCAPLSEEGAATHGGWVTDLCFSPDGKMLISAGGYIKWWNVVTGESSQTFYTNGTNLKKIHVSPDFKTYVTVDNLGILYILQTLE
Chain of Luciferin 4-monooxygenase (P08659 whole entry): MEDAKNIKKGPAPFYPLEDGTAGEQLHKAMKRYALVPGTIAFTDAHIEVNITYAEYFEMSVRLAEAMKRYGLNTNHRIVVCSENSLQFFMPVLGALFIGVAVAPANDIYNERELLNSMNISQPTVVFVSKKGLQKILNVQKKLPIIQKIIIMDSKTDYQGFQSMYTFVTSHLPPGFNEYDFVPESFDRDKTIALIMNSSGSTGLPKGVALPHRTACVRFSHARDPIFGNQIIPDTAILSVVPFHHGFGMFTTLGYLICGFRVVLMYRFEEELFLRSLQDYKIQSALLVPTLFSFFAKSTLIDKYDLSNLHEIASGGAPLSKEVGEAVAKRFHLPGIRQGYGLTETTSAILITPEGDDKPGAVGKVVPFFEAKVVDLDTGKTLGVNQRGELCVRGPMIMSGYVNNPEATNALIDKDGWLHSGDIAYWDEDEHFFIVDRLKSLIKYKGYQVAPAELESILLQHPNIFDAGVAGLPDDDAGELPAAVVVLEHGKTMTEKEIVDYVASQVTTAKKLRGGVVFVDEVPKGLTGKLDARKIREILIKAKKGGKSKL
Chain of CAAX prenyl protease 1 (P47154 whole entry): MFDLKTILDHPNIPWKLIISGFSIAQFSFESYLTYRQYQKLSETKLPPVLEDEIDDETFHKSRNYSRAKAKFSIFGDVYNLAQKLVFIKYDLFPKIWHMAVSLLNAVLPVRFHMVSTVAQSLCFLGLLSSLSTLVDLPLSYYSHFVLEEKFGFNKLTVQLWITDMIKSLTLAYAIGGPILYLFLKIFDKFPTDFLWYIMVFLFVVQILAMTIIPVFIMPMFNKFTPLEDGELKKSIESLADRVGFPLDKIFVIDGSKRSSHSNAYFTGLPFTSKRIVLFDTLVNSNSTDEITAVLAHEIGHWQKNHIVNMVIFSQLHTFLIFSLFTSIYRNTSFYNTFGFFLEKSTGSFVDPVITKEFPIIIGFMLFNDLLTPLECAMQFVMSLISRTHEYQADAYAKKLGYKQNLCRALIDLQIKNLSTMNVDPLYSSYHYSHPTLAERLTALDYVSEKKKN
Chain of Sphingosine 1-phosphate receptor 1 (P21453 whole entry): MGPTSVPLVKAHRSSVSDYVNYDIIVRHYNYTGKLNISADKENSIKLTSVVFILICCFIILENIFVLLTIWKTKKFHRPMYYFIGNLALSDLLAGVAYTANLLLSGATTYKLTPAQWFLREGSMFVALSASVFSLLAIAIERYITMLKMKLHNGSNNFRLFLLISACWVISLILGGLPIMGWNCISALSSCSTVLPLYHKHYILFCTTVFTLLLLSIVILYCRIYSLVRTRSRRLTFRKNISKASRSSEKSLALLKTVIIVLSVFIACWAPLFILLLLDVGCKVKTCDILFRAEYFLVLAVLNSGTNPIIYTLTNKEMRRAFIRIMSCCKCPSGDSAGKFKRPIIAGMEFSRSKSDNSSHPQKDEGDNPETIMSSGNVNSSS

For `O=C(Nc1c(Cl)cccc1Cl)c1cc(-c2ccco2)on1`, the figures for the IC50 at Cysteine protease ATG4B and on Phospholipase A2 were 13.2 µM (active) and 6.14 µM (active), respectively.

For the compound `O=C1NN(c2cccc(F)c2)C(=O)/C1=C1\C(=O)Nc2ccccc21`, the AC50 in assay [1] was 4.9 µM (active); in [4] it was 43.3 µM (active). In addition, the IC50 was 199 µM (active) in assay [2], < 0.4 µM (active) in [3], > 66 µM (inactive) in assay [5] and > 66 µM (inactive) in assay [6].

On to `COc1cc(-c2nc(-c3ccccc3)c(-c3cccs3)[nH]2)cc(OC)c1OC`, for which the AC50 in assay [1] was 50.3 µM (active); in assay [4] it was 29.9 µM (active). Also, the EC50 is 1.21 µM (active) in [7] and > 30 µM (not active) in assay [8].

Turning to `C=C(C)C(=O)Nc1cccc(C2=NOC3(C2)C[C@H](C(N)=O)N(C(=O)C(c2ccccc2)c2ccccc2)C3)c1` (stereo partly specified), the EC50 in assay [9] is 85.9 µM (inactive); in assay [10], 11.4 µM (active). In addition, the figures for the IC50 in assay [2] and in assay [3] were 167 µM (active) and 3.12 µM (active), respectively.

Take `O=C(NCc1ccco1)c1cc2ccc(O)cc2oc1=O`: the IC50 at Estrogen receptor beta [11] was 3.57 µM (active); on Estrogen receptor, 14.3 µM (active); at Estrogen receptor beta [16], > 50 µM (not active). Further, the EC50 in assay [12] was 1.82 µM (active); in assay [13], 7.99 µM (active); in the assay on Streptococcus it was 13.3 µM (active); in assay [14] it was 5.05 µM (active); in assay [15] it was 0.288 µM (active); in assay [17], 1.84 µM (active). Besides, the EC50 in assay [18] was 3.28 µM (active); on Streptokinase A, > 150 µM (not active).

As to `CCN(CC(=O)N1CCc2ccccc2C1)S(=O)(=O)c1ccc2ccccc2c1`, the IC50 at Cysteine protease ATG4B was 23.7 µM (inactive); at Phospholipase A2, 4.17 µM (active).

Take `CC1=CC2=NC(=O)CC(C)(C(=O)N(CC(=O)NC3CCCC3)Cc3ccccc3)N2C=C1` (stereo unspecified): on CAAX prenyl protease 1, the AC50 is 11.5 µM (active).

In the case of `Cc1csc(CN(C)c2ncnc3ccc(-c4ccc5c(c4)OCO5)cc23)n1`, the AC50 in assay [19] is 2.23 µM (active).
